{
  "source": "ChEMBL document CHEMBL5137036",
  "about": "“Design and synthesis of highly TRAIL expression HDAC inhibitors based on ONC201 to promote apoptosis of colorectal cancer” (Eur J Med Chem, 2022)",
  "key": {"HCT-116 [1]": {"test_system": "HCT-116", "assay": "Upregulation of DR5 mRNA expression in human HCT-116 cells at 0.25 uM incubated for 12 hrs by RT-PCR analysis", "type": "functional, cell-based"}, "Histone deacetylase 1 [2]": {"target": "T1, Histone deacetylase 1 (Homo sapiens, UniProt Q13547)", "T1 sequence (Q13547 whole entry)": "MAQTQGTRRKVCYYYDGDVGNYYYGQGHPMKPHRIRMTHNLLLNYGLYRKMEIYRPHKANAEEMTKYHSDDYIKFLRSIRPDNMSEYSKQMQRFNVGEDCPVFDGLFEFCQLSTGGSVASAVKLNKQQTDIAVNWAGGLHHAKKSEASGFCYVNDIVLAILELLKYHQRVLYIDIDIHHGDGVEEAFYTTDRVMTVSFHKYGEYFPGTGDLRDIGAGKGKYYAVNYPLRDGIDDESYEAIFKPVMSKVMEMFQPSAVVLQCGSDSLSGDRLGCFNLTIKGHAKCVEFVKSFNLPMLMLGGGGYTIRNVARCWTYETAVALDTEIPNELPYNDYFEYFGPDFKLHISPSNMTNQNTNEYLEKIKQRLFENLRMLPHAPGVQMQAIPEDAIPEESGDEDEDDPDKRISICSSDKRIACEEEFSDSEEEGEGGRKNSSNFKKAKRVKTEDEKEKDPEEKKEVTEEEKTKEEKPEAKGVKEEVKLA", "assay": "Inhibition of human HDAC1 using RHKKAc fluorogenic peptide as substrate preincubated for 10 mins followed by substrate addition by fluorescence based analysis"}, "MV4-11": {"test_system": "MV4-11", "assay": "Antiproliferative activity against human MV4-11 cells assessed as inhibition of cell growth incubated for 72 hrs by luminescence based analysis", "type": "functional", "details": "MV4-11, 72 h"}, "Histone deacetylase 1 [3]": {"target": "T1, Histone deacetylase 1", "assay": "Inhibition of HDAC1 in human HCT-116 cells assessed as increase in DR5 protein expression at 0.5 uM incubated for 12 hrs by Western blot analysis", "type": "cell-based"}, "Histone deacetylase 1 [4]": {"target": "T1, Histone deacetylase 1", "assay": "Inhibition of HDAC1 in human HCT-116 cells assessed as increase in Ac-H4 acetylation at 0.5 uM incubated for 12 hrs by Western blot analysis", "type": "cell-based"}, "HCT-116 [5]": {"test_system": "HCT-116", "assay": "Induction of apoptosis in human HCT-116 cells assessed as increase in caspase-8 protein expression incubated for 12 hrs by Western blot analysis", "type": "functional, cell-based", "details": "dose 0.125-0.5 µM, DDE = dose-dependent effect"}, "[6]": {"target": "Histone deacetylase 3/Nuclear receptor corepressor 2 (HDAC3/NCoR2) (Homo sapiens, UniProt O15379)", "sequence (O15379 whole entry)": "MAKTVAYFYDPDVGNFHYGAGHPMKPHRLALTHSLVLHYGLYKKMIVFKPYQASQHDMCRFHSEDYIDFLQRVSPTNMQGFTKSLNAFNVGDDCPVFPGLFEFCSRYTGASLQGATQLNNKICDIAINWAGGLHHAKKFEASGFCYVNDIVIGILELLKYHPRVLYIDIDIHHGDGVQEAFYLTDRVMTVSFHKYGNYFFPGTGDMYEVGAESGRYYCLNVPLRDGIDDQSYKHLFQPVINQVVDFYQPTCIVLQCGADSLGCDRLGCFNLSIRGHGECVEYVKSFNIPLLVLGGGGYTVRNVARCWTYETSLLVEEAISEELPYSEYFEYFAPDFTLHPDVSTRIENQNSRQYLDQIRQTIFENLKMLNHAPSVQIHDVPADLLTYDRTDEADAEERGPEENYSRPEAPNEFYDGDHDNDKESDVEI", "sequence (Q9Y618 whole entry, further chain)": "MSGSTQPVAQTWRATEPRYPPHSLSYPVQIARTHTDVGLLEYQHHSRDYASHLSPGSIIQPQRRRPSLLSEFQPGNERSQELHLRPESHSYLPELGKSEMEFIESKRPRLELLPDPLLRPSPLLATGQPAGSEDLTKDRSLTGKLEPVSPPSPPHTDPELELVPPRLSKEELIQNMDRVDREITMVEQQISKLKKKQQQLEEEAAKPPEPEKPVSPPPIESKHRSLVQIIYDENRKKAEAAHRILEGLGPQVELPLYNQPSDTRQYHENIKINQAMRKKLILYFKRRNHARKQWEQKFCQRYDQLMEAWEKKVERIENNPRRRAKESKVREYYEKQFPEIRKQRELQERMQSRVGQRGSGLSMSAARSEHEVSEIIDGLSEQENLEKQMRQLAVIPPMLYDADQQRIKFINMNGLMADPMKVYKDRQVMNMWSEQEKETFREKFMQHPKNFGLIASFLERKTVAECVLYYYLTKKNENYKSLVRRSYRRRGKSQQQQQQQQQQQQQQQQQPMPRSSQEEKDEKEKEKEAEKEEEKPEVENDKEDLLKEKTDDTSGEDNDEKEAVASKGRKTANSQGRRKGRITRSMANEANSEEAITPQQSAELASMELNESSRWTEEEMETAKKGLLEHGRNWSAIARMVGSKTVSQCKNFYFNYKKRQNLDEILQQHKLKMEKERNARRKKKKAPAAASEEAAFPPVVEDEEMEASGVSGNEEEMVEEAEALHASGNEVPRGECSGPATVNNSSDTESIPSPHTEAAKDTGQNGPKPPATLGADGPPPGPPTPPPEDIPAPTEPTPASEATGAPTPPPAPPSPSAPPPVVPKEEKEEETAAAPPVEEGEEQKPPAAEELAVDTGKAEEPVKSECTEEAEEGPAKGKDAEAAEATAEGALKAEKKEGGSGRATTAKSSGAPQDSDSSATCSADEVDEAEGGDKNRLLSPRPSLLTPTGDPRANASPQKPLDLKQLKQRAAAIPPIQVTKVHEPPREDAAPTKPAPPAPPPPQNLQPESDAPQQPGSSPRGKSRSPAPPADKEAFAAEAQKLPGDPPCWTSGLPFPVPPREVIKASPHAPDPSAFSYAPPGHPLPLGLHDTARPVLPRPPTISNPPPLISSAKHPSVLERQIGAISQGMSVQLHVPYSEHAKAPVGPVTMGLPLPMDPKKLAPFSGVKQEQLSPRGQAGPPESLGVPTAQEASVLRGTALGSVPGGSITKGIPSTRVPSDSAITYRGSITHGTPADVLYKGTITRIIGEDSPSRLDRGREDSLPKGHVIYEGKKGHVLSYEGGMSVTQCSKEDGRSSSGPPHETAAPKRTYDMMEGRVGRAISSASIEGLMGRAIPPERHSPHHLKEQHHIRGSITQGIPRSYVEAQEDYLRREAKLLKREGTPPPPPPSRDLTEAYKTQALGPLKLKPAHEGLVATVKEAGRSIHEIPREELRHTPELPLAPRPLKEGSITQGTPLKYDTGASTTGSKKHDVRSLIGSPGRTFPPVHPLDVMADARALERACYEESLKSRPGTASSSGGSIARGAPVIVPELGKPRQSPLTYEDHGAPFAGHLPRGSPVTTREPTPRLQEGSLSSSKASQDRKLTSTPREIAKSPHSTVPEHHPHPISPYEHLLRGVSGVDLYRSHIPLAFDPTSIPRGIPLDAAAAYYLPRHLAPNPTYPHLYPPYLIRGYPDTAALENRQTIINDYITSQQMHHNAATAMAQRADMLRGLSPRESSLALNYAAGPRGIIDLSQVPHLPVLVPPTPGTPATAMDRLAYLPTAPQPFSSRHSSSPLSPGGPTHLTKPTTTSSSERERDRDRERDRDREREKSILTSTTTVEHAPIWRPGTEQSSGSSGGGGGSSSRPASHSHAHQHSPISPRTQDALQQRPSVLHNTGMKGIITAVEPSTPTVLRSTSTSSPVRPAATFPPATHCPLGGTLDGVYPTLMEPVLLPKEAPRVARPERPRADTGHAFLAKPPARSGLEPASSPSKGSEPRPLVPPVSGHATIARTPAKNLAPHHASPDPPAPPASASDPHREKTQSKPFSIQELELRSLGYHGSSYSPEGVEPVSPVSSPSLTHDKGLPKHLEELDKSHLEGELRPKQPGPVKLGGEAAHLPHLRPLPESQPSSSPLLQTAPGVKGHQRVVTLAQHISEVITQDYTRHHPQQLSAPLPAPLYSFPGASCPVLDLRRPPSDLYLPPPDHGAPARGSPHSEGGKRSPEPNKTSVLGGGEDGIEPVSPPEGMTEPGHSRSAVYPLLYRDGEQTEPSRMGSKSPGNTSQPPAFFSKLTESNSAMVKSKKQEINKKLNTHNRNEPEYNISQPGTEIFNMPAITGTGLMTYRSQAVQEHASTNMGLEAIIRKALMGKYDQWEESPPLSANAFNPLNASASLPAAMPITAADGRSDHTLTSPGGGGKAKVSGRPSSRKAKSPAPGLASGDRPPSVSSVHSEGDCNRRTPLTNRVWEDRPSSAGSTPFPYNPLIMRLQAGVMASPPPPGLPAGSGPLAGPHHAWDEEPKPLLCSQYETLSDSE", "assay": "Inhibition of human HDAC3/NcoR2 using RHKKAc fluorogenic peptide as substrate preincubated for 10 mins followed by substrate addition by fluorescence based analysis", "type": "protein-complex assay"}, "Histone deacetylase 4": {"target": "Histone deacetylase 4 (Homo sapiens, UniProt P56524)", "sequence (P56524 whole entry)": "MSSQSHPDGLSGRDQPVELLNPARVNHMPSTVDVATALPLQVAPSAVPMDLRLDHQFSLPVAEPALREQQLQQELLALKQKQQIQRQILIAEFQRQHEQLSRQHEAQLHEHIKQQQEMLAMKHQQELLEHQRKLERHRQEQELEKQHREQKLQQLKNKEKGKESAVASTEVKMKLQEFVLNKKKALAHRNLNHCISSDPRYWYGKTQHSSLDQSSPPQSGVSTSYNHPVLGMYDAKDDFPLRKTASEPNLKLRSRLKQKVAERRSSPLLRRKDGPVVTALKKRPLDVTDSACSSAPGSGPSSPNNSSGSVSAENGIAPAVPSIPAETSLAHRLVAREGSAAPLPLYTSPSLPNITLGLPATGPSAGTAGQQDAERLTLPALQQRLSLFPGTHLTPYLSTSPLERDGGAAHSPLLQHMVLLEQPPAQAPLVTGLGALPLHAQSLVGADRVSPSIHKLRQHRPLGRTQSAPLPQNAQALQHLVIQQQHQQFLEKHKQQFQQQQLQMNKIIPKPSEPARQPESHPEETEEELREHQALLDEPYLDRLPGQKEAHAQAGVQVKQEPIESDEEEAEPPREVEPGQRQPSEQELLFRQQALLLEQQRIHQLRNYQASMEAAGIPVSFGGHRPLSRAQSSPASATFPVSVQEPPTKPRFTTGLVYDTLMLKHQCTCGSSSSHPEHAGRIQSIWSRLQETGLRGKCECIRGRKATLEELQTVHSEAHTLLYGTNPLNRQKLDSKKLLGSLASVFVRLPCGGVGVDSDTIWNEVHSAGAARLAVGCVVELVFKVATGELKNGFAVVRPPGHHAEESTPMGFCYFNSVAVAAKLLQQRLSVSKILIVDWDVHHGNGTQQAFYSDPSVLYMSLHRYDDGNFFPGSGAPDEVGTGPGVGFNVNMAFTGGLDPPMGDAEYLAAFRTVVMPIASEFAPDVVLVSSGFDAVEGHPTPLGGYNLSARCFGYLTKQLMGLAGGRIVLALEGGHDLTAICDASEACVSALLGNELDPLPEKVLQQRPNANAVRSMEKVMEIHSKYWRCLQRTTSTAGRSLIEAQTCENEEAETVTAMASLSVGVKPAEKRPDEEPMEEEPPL", "assay": "Inhibition of human HDAC4 using Boc-Lys(trifluoroacetyl)-AMC as fluorogenic substrate preincubated for 10 mins followed by substrate addition by fluorescence based analysis"}, "Histone deacetylase 11": {"target": "T2, Histone deacetylase 11 (Homo sapiens, UniProt Q96DB2)", "T2 sequence (Q96DB2 whole entry)": "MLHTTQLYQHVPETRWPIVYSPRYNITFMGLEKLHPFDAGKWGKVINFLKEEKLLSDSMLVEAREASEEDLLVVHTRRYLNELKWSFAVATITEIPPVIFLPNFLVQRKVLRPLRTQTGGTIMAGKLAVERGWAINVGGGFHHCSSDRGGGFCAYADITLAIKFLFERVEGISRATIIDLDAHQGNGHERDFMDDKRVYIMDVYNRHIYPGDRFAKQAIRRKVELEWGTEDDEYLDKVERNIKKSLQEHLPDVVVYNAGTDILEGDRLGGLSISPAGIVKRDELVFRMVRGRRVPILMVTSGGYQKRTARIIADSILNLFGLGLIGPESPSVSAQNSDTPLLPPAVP", "assay": "Inhibition of human HDAC11 using Boc-Lys(trifluoroacetyl)-AMC as fluorogenic substrate preincubated for 10 mins followed by substrate addition by fluorescence based analysis"}, "HCT-116 [7]": {"test_system": "HCT-116", "assay": "Induction of apoptosis in human HCT-116 cells assessed as viable cells at 0.125 uM incubated for 24 hrs by AnnexinV-FITC/PI staining based flow cytometry (reference value: 93.64%)", "type": "functional", "details": "read-out: Activity"}, "HCT-116 [8]": {"test_system": "HCT-116", "assay": "Induction of apoptosis in human HCT-116 cells assessed as early apoptotic cells at 0.125 uM incubated for 24 hrs by AnnexinV-FITC/PI staining based flow cytometry (reference value: 0.93 %)", "type": "functional"}, "HCT-116 [9]": {"test_system": "HCT-116", "assay": "Induction of apoptosis in human HCT-116 cells assessed as late apoptotic cells at 0.125 uM incubated for 24 hrs by AnnexinV-FITC/PI staining based flow cytometry (reference value: 0.82 %)", "type": "functional"}, "HCT-116 [10]": {"test_system": "HCT-116", "assay": "Induction of apoptosis in human HCT-116 cells assessed as dead cells at 0.125 uM incubated for 24 hrs by AnnexinV-FITC/PI staining based flow cytometry (reference value: 4.62 %)", "type": "functional"}, "HCT-116 [11]": {"test_system": "HCT-116", "assay": "Induction of apoptosis in human HCT-116 cells assessed as early apoptotic cells at 0.25 uM incubated for 24 hrs by AnnexinV-FITC/PI staining based flow cytometry (reference value: 0.93 %)", "type": "functional"}, "HCT-116 [12]": {"test_system": "HCT-116", "assay": "Induction of apoptosis in human HCT-116 cells assessed as dead cells at 0.25 uM incubated for 24 hrs by AnnexinV-FITC/PI staining based flow cytometry (reference value: 4.62 %)", "type": "functional"}, "HCT-116 [13]": {"test_system": "HCT-116", "assay": "Induction of apoptosis in human HCT-116 cells assessed as viable cells at 0.5 uM incubated for 24 hrs by AnnexinV-FITC/PI staining based flow cytometry (reference value: 93.64%)", "type": "functional", "details": "read-out: Activity"}, "HCT-116 [14]": {"test_system": "HCT-116", "assay": "Induction of apoptosis in human HCT-116 cells assessed as early apoptotic cells at 0.5 uM incubated for 24 hrs by AnnexinV-FITC/PI staining based flow cytometry (reference value: 0.93 %)", "type": "functional"}, "HCT-116 [15]": {"test_system": "HCT-116", "assay": "Induction of apoptosis in human HCT-116 cells assessed as late apoptotic cells at 0.5 uM incubated for 24 hrs by AnnexinV-FITC/PI staining based flow cytometry (reference value: 0.82 %)", "type": "functional"}, "HCT-116 [16]": {"test_system": "HCT-116", "assay": "Induction of apoptosis in human HCT-116 cells assessed as dead cells at 0.5 uM incubated for 24 hrs by AnnexinV-FITC/PI staining based flow cytometry (reference value: 4.62 %)", "type": "functional"}, "HCT-116 [17]": {"test_system": "HCT-116", "assay": "Antitumor activity against human HCT-116 cells xenografted in BALB/c mouse assessed as reduction in tumor growth at 12.5 mg/kg, po qd administered for 3 weeks and measured every 3 days by vernier caliper analysis", "type": "functional, organism-based"}, "HCT-116 [18]": {"test_system": "HCT-116", "assay": "Antitumor activity against human HCT-116 cells xenografted in BALB/c mouse assessed as reduction in tumor growth by measuring T/C ratio at 25 mg/kg, po qd administered for 3 weeks and measured every 3 days by vernier caliper analysis", "type": "functional"}, "[19]": {"assay": "Toxicity in BALB/c mouse xenografted with human HCT-116 cells assessed as reduction in body weight at 12.5 to 25 mg/kg, po qd administered for 3 weeks", "type": "organism-based", "details": "in vivo, 504 h, dose 12.5-25 mg/kg"}, "[20]": {"assay": "Toxicity in BALB/c mouse xenografted with human HCT-116 cells assessed as morphological changes in liver at 12.5 to 25 mg/kg, po qd administered for 21 days by H & E staining based microscopic analysis", "type": "organism-based", "details": "in vivo, 504 h, dose 12.5-25 mg/kg, time 21 day"}, "[21]": {"assay": "Toxicity in BALB/c mouse xenografted with human HCT-116 cells assessed as morphological changes in lung at 12.5 to 25 mg/kg, po qd administered for 21 days by H & E staining based microscopic analysis", "type": "organism-based", "details": "in vivo, 504 h, dose 12.5-25 mg/kg, time 21 day"}, "[22]": {"assay": "Toxicity in BALB/c mouse xenografted with human HCT-116 cells assessed as morphological changes in kidney at 12.5 to 25 mg/kg, po qd administered for 21 days by H & E staining based microscopic analysis", "type": "organism-based", "details": "in vivo, 504 h, dose 12.5-25 mg/kg, time 21 day"}, "HCT-116 [23]": {"test_system": "HCT-116", "assay": "Effect on HDAC1 protein expression in human HCT-116 cells incubated for 12 hrs by Western blot analysis", "type": "functional, cell-based", "details": "dose 0.125-0.5 µM, DDE = dose-dependent effect"}, "HCT-116 [24]": {"test_system": "HCT-116", "assay": "Effect on DR5 protein expression in human HCT-116 cells incubated for 12 hrs by Western blot analysis", "type": "functional, cell-based", "details": "dose 0.125-0.5 µM, DDE = dose-dependent effect"}, "HCT-116 [25]": {"test_system": "HCT-116", "assay": "Effect on TRAIL protein expression in human HCT-116 cells incubated for 12 hrs by Western blot analysis", "type": "functional, cell-based", "details": "dose 0.125-0.5 µM, DDE = dose-dependent effect"}, "HCT-116 [26]": {"test_system": "HCT-116", "assay": "Effect on ac-H3 protein expression in human HCT-116 cells incubated for 12 hrs by Western blot analysis", "type": "functional, cell-based", "details": "dose 0.125-0.5 µM, DDE = dose-dependent effect"}, "HCT-116 [27]": {"test_system": "HCT-116", "assay": "Effect on ac-H4 protein expression in human HCT-116 cells incubated for 12 hrs by Western blot analysis", "type": "functional, cell-based", "details": "dose 0.125-0.5 µM, DDE = dose-dependent effect"}},
  "note": "Activity calls are given as the source filed them. The calls are words filed in the database; no cut-off is given here.",
  "data": [
    {"molecule": "COc1ccccc1CN1C(=O)C2=C(CCN(Cc3ccc(C(=O)Nc4ccccc4N)cc3)C2)N2CCN=C12", "values": [
      {"measurement": "Activity", "setting": "HCT-116 [1]", "result": "Active"},
      {"measurement": "IC50", "setting": "Histone deacetylase 1 [2]", "result": 156, "unit": "nM"},
      {"measurement": "IC50", "setting": "MV4-11", "result": 563, "unit": "nM"},
      {"measurement": "inhibition", "setting": "Histone deacetylase 1 [3]", "result": "Active"},
      {"measurement": "inhibition", "setting": "Histone deacetylase 1 [4]", "result": "Active"},
      {"measurement": "Activity", "setting": "HCT-116 [5]", "result": "Dde"},
      {"measurement": "IC50", "setting": "[6]", "result": 589, "unit": "nM"},
      {"measurement": "IC50", "setting": "Histone deacetylase 4", "result": "> 10000", "unit": "nM"},
      {"measurement": "IC50", "setting": "Histone deacetylase 11", "result": "> 10000", "unit": "nM"},
      {"measurement": "viability at 0.125 µM", "setting": "HCT-116 [7]", "result": 91.5, "unit": "%"},
      {"measurement": "Activity", "setting": "HCT-116 [8]", "result": 0.87, "unit": "%"},
      {"measurement": "Activity", "setting": "HCT-116 [9]", "result": 1.35, "unit": "%"},
      {"measurement": "Activity", "setting": "HCT-116 [10]", "result": 6.33, "unit": "%"},
      {"measurement": "Activity", "setting": "HCT-116 [11]", "result": 1.18, "unit": "%"},
      {"measurement": "Activity", "setting": "HCT-116 [12]", "result": 4.06, "unit": "%"},
      {"measurement": "viability at 0.5 µM", "setting": "HCT-116 [13]", "result": 87.2, "unit": "%"},
      {"measurement": "Activity", "setting": "HCT-116 [14]", "result": 1.22, "unit": "%"},
      {"measurement": "Activity", "setting": "HCT-116 [15]", "result": 2, "unit": "%"},
      {"measurement": "Activity", "setting": "HCT-116 [16]", "result": 9.59, "unit": "%"},
      {"measurement": "Activity", "setting": "HCT-116 [17]", "result": "Active"},
      {"measurement": "T/C", "setting": "HCT-116 [18]", "result": 0.33},
      {"measurement": "Activity", "setting": "[19]", "result": "Non-Toxic"},
      {"measurement": "Activity", "setting": "[20]", "result": "Non-Toxic"},
      {"measurement": "Activity", "setting": "[21]", "result": "Non-Toxic"},
      {"measurement": "Activity", "setting": "[22]", "result": "Non-Toxic"},
      {"measurement": "Activity", "setting": "HCT-116 [23]", "result": "Dde"},
      {"measurement": "Activity", "setting": "HCT-116 [24]", "result": "Dde"},
      {"measurement": "Activity", "setting": "HCT-116 [25]", "result": "Dde"},
      {"measurement": "Activity", "setting": "HCT-116 [26]", "result": "Dde"},
      {"measurement": "Activity", "setting": "HCT-116 [27]", "result": "Dde"}
    ]}
  ]
}
